Experimental findings from ChEMBL document CHEMBL1201862, “PubChem BioAssay data set” (2004) are described below.

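Assay format: 96-well plates, 48-hour exposure. GI50 is the concentration that inhibits growth by half.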 Activity calls are given as the source filed them. No stated cut-off is given here; in the data, active = GI50 up to about 1.1 µM and inactive = higher.

Among the test systems are Malme-3M; EKVX; K562; CCRF-CEM; MDA-MB-435; 786-0; SK-OV-3; NCI-H226; PC-3; DU-145; LOX IMVI; A549; UACC-257; OVCAR-8; NCI/ADR-RES; SF-539; HCT-116; OVCAR-4; SNB-19; HCC 2998.
Common to all, as to assay: NCI-60 cell line screen, 48 h

For the compound `CCOn1cc(C[C@@]2(O)C(=O)OC3[C@@H](O)CO[C@@]32O)c2ccccc21` (stereo partly drawn), the GI50 in the experiment with Malme-3M is > 100 µM (inactive); with EKVX, > 100 µM (inactive); in the experiment with K562 it was > 100 µM (inactive); in the experiment with CCRF-CEM it was 36.5 µM (inactive); in the experiment on MDA-MB-435 it was > 100 µM (inactive); in the experiment with 786-0, 94.4 µM (inactive). Moreover, the GI50 with SK-OV-3, in the experiment with NCI-H226, in the experiment on PC-3, with DU-145, in the experiment with LOX IMVI and in the experiment with A549 was > 100 µM (inactive) in each case. Moreover, the GI50 with UACC-257, in the experiment on OVCAR-8, with NCI/ADR-RES, with SF-539, in the experiment on HCT-116 and in the experiment with OVCAR-4 was > 100 µM (inactive) in each case. Besides, the GI50 with SNB-19 is > 100 µM (inactive).
For `CCCCC/C=C1\CC(CO)(COC(=O)CC(C(C)C)C(C)C)OC1=O` (stereo not drawn), the GI50 is 15.3 µM (inactive) in the experiment on Malme-3M; 13.7 µM (inactive) in the experiment with EKVX; 6.84 µM (inactive) with K562; 11.8 µM (inactive) with CCRF-CEM; 15.4 µM (inactive) in the experiment on HCC 2998; 8.59 µM (inactive) in the experiment with MDA-MB-435. Also, the GI50 in the experiment on 786-0 is 12.1 µM (inactive); in the experiment on SK-OV-3 it was 19.1 µM (inactive); in the experiment with NCI-H226, 13.7 µM (inactive); in the experiment with PC-3, 10.5 µM (inactive); in the experiment on DU-145, 15.6 µM (inactive); in the experiment with A549 it was 8.89 µM (inactive). In addition, the GI50 in the experiment with UACC-257 was 21.1 µM (inactive); with OVCAR-8, 18.2 µM (inactive); in the experiment on NCI/ADR-RES, 20.3 µM (inactive); in the experiment on HCT-116, 18.7 µM (inactive); in the experiment on OVCAR-4, 30 µM (inactive); in the experiment on SNB-19, 15 µM (inactive).
Regarding `Cn1c(=O)c2sc3cc4c(cc3c2c2ccccc21)sc1c(=O)n(C)c2ccccc2c14`, the GI50 in the experiment on Malme-3M is 81.7 µM (inactive); in the experiment on EKVX, > 100 µM (inactive); with K562, > 10 µM (inactive); in the experiment with CCRF-CEM it was 40.1 µM (inactive); in the experiment with HCC 2998 it was > 100 µM (inactive); in the experiment on MDA-MB-435, > 100 µM (inactive). Besides, the GI50 in the experiment on 786-0 is 31.8 µM (inactive); in the experiment with SK-OV-3, > 100 µM (inactive); with NCI-H226 it was > 100 µM (inactive); in the experiment with PC-3, > 100 µM (inactive); with DU-145, > 100 µM (inactive); with A549, 89.3 µM (inactive). Also, the GI50 was > 100 µM (inactive) with UACC-257; 41.7 µM (inactive) in the experiment with OVCAR-8; > 100 µM (inactive) with NCI/ADR-RES; 76 µM (inactive) in the experiment on SF-539; 67.5 µM (inactive) in the experiment on HCT-116; > 100 µM (inactive) in the experiment with OVCAR-4.
For the compound `Cc1cc2nc3c(N)nn(CCCN(C)C)c3nc2cc1C`, the GI50 in the experiment with EKVX was > 100 µM (inactive); in the experiment on HCC 2998 it was 41.3 µM (inactive); in the experiment with MDA-MB-435 it was 90.8 µM (inactive); in the experiment with 786-0 it was 68.9 µM (inactive); in the experiment on SK-OV-3, > 100 µM (inactive); with PC-3, > 100 µM (inactive). Besides, the GI50 is > 100 µM (inactive) in the experiment with DU-145; > 100 µM (inactive) in the experiment on A549; 97.5 µM (inactive) in the experiment on UACC-257; 83 µM (inactive) in the experiment on OVCAR-8; 59.7 µM (inactive) with NCI/ADR-RES; > 100 µM (inactive) with SF-539. The GI50 with HCT-116 was 50.5 µM (inactive); in the experiment on OVCAR-4, > 100 µM (inactive); with SNB-19, > 100 µM (inactive).
On to `O=C1c2c(O)cccc2Cc2cc(CO)cc(O)c21`, for which the GI50 with Malme-3M is 2.21 µM (inactive); in the experiment on EKVX, 3.03 µM (inactive); in the experiment on K562, 1.99 µM (inactive); in the experiment on CCRF-CEM, 3.28 µM (inactive); in the experiment with HCC 2998 it was 2.66 µM (inactive); in the experiment on MDA-MB-435, 2.67 µM (inactive). The GI50 with 786-0 was 3.21 µM (inactive); in the experiment with SK-OV-3, 3.19 µM (inactive); in the experiment on NCI-H226, 5.36 µM (inactive); in the experiment on PC-3 it was 1.08 µM (active); with DU-145 it was 3.86 µM (inactive); in the experiment with A549, 2.92 µM (inactive). Moreover, the GI50 with UACC-257 was 2.14 µM (inactive); with OVCAR-8, 2.74 µM (inactive); in the experiment with NCI/ADR-RES it was 3.59 µM (inactive); in the experiment with HCT-116, 2.31 µM (inactive); in the experiment on OVCAR-4, 1.07 µM (active); in the experiment with SNB-19, 2.49 µM (inactive).
Consider `CC(NC(=O)C(CC(=O)OCc1ccccc1)NC(=O)OCc1ccccc1)c1ccccc1` (stereo not drawn), for which the GI50 in the experiment on Malme-3M was 73.3 µM (inactive); in the experiment on EKVX it was > 100 µM (inactive); in the experiment on K562, > 100 µM (inactive); in the experiment with HCC 2998 it was > 100 µM (inactive); with MDA-MB-435, > 100 µM (inactive); in the experiment with 786-0 it was 49.2 µM (inactive). Besides, the GI50 is 83.2 µM (inactive) in the experiment on SK-OV-3; 43.5 µM (inactive) in the experiment with NCI-H226; 35.3 µM (inactive) in the experiment with PC-3; > 100 µM (inactive) with DU-145; 73.5 µM (inactive) in the experiment on A549; > 10 µM (inactive) in the experiment with UACC-257. Besides, the GI50 in the experiment on OVCAR-8 is > 100 µM (inactive); in the experiment on NCI/ADR-RES, > 100 µM (inactive); in the experiment on SF-539 it was 64.3 µM (inactive); in the experiment on SNB-19, 48 µM (inactive).
In the case of `CN(C)/C=N/CCN1CCOCC1`, the GI50 in the experiment on Malme-3M, in the experiment on EKVX, with K562, with CCRF-CEM, in the experiment on MDA-MB-435 and in the experiment on 786-0 was > 100 µM (inactive) throughout. The GI50 with SK-OV-3, in the experiment with NCI-H226, in the experiment with PC-3, with DU-145, in the experiment with LOX IMVI and in the experiment on A549 was > 100 µM (inactive) each time. The GI50 with UACC-257, with OVCAR-8, with NCI/ADR-RES, in the experiment on SF-539, in the experiment on HCT-116 and with OVCAR-4 was > 100 µM (inactive) in each case. Besides, in the experiment on SNB-19, the GI50 was > 100 µM (inactive).
For `N#CC(C#N)=C1c2ccccc2C(=NN)c2ccccc21`, the GI50 with Malme-3M was 92.9 µM (inactive); in the experiment with K562 it was > 100 µM (inactive); with CCRF-CEM, > 100 µM (inactive); with HCC 2998, > 100 µM (inactive); in the experiment on MDA-MB-435, > 100 µM (inactive); in the experiment with 786-0, > 54.8 µM (inactive). In addition, the GI50 in the experiment on SK-OV-3 is > 100 µM (inactive); in the experiment on NCI-H226 it was > 100 µM (inactive); with PC-3, > 100 µM (inactive); with DU-145, 5.25 µM (inactive); with UACC-257 it was > 100 µM (inactive); with OVCAR-8, > 100 µM (inactive). In addition, the GI50 in the experiment on NCI/ADR-RES was > 100 µM (inactive); with SF-539, > 56.1 µM (inactive); with SNB-19 it was > 100 µM (inactive).
